Test results from patent publication US20240051978A1, “3-CYCLIC AMINE-INDOLE DERIVATIVES AS SEROTONERGIC AGENTS FOR THE TREATMENT OF CNS DISORDERS” (MINDSET PHARMA INC., priority 2020, published 2024).

Experiments:
human 5-HT2A receptor = human 5-HT2A receptor (Homo sapiens (Human), UniProt P28223); test: Radioligand binding assay ([3H]-ketanserin) on human 5-HT2A receptor; conditions: [3H]-ketanserin competition; read-out: h5-HT2A IC50
Protocol: • i. The assay buffer was prepared following the table below;
• ii. 8 doses of reference and exemplary test compounds were prepared starting from 10 mM stock solution as requested by 5-fold serial dilutions with 100%; • iii. (v/v) DMSO was prepared: a. 50 μl/well of 0.5% (v/v) PEI was added to UniFilter-96 GF/B plates. The plates were sealed and incubates at 4° C. for 3 hrs; b. After incubation, the plates were washed 3 times with ice-cold wash buffer (50 mM Tris, pH7.4); • iv. Preparation of assay plates: a. Cell membrane was diluted with assay buffer and 330 μl/well was added to 96 round deep well plates to reach a concentration of 20 μg/well; b. 8 concentrations of reference or exemplary test compounds were prepared and added 110 μl/well to 96 round deep well plates; c. [3H]-ketanserin was diluted with assay buffer to 5 nM (5× final concentration) and added 110 μl/well to 96 round deep well plates. • v. The plate were centrifuged at 1000 rpm for 30 secs and then agitated at 600 rpm, R.T. for 5 min. • vi. The plates were sealed and incubated at 27° C. for 90 min. • vii. The incubation was stopped by vacuum filtration onto GF/B filter plates followed by 4 times washing with ice-cold wash buffer (50 mM Tris, pH7.4). • vii. […] The filter plates were sealed and 40 μl/well of scintillation cocktail added. • x. The plate was read by using a Microbeta2 microplate counter.
For reference and exemplary test compounds, the results are expressed as % Inhibition, using the normalization equation: N=100−100×(U−C2)/(C1−C2), where U is the unknown value, C1 is the average of high controls, and C2 is the average of low controls. The IC50 was determined by fitting percentage of inhibition as a function of compound concentrations with Hill equation using XLfit.

[1] = Liver microsomes stability, mouse; conditions: for Predicted hepatic CL: Mouse liver microsomes, with NADPH; for Remaining Percentage (%) 0 min / Remaining Percentage (%) 60 min: Mouse; for CLint scaled at 2 μM / half-life at 2 μM / microsomal CLint at 2 μM: male, mouse, microsomes
Protocol: (§1) The objective of this study was to estimate in vitro metabolic stability of 1-12 in pooled human and male mouse liver microsomes. The concentrations of parent compounds in reaction systems were evaluated by LC-MS/MS for estimating the stability in pooled human and male mouse liver microsomes. The in vitro intrinsic clearances of test compounds were determined as well.
(§2) A master solution in the “Incubation Plate” containing phosphate buffer, ultra-pure H2O, MgCl2 solution and liver microsomes was made according to Table 3. The mixture was pre-warmed at 37° C. water bath for 5 minutes.
(§3) 40 μL of 10 mM NADPH solution was added to each well. The final concentration of NADPH was 1 mM. The negative control samples were prepared by replacing NADPH with 40 μL of ultra-pure H2O. Samples were prepared in duplicate. Negative controls were prepared in singlet.
(§4) The reaction was started with the addition of 4 μL of 200 μM exemplary test compounds or control compounds to each master solution to get the final concentration of 2 μM. This study was performed in duplicate.
(§5) Aliquots of 50 μL were taken from the reaction solution at 0, 15, 30, 45 and 60 minutes. The reaction solutions were stopped by the addition of 4 volumes of cold methanol with IS (100 nM alprazolam, 200 nM imipramine, 200 nM labetalol and 2 μM ketoprofen). Samples were centrifuged at 3,220 g for 40 minutes. Aliquot of 90 μL of the supernatant was mixed with 90 μL of ultra-pure H2O and then was used for LC-MS/MS analysis.
(§6) LC/MS analysis was performed for all samples from this study using a Shimadzu liquid chromatograph separation system equipped with degasser DUG-20A5R; solvent delivery unit LC-30AD; system controller SIL-30AC; column oven CTO-30A; CTC Analytics HTC PAL System; Mass spectrometric analysis was performed using an Triple Quad™ 5500 instrument.
(§7) All calculations were carried out using Microsoft Excel. Peak area ratios of test compound to internal standard (listed in the below table) were determined from extracted ion chromatograms.
(§8) All calculations were carried out using Microsoft Excel. Peak areas were determined from extracted ion chromatograms. The slope value, k, was determined by linear regression of the natural logarithm of the remaining percentage of the parent drug vs. incubation time curve.
(§9) The in vitro half-life (in vitro t½) was determined from the slope value:
(§10) Conversion of the in vitro t½ (min) into the in vitro intrinsic clearance (in vitro CLint, in μL/min/mg proteins) was done using the following equation (mean of duplicate determinations): […]

[2] = Liver microsomes stability, rat; conditions: for Predicted hepatic CL: Rat liver microsomes, with NADPH; for Remaining Percentage (%) 0 min / Remaining Percentage (%) 60 min: Rat; for CLint scaled at 2 μM / half-life at 2 μM / microsomal CLint at 2 μM: rat, microsomes
Protocol: as §1, §2, §3, §4, §5, §6, §7, §8, §9, §10

[3] = Liver microsomes stability, human; conditions: for Predicted hepatic CL: Human liver microsomes, with NADPH; for Remaining Percentage (%) 0 min / Remaining Percentage (%) 60 min: Human; for CLint scaled at 2 μM / half-life at 2 μM / microsomal CLint at 2 μM: human, microsomes
Protocol: as §1, §2, §3, §4, §5, §6, §7, §8, §9, §10

[4] = molecular target: human 5-HT2A (h5-HT2A) receptor (Homo sapiens (Human), UniProt P28223); test: FLIPR assay, human 5-HT2A receptor under agonist mode; type: cell-based; conditions: FLIPR calcium
Protocol: I. Assessment of the Activated Effect of Exemplary Compounds of Formula I Targeting on Human 5-HT2A (h5-HT2A) Receptor Under Agonist Mode:
1. the Cells were cultured in cell culture medium (DMEM containing 10% FBS 1×penicillin-streptomycin 300 μg/ml G418 and 100 μg/ml hygromycin B) at 37° C., 5% (v/v) CO2.
2. One day before the assays, the cells were detached using TrypLE™ Express and cells were counted using cell counter.
3. 20000 cells/well were seeded in 30 μl/well culture medium to a 384-well cell plate and the cells were incubated overnight at 37° C., 5% (v/v) CO2.
4. On the assay day, 2× dye solution was prepared following the manual of the FLIPR® Calcium 6 Assay Kit: i. The dye was diluted with assay buffer(20 mM HEPES in 1×HBSS, PH7.4); ii. Probenecid was added to the final concentration of 5 mM; iii. Vortex vigorously for 1-2 minutes.
5. Medium was removed from cell plate by flicking the cell plate on towel papers.
6. 10 μl of assay buffer and 10 μl of 2× dye solution was added to each well of the cell plate.
7. The cell plate was placed on plate shaker, and the plate was agitated at 600 rpm for 2 minutes. The plate was incubated at 37° C. for 2 hours followed by additional 15-minute incubation at 25° C.
8. 3× compound in assay buffer was prepared: a. reference compounds were diluted to required concentration with DMSO. Compounds were added to a 384-well compound plate; b. Serial dilutions were performed; c. 10 mM test compounds were added to the compound plate, 3-fold serial dilutions were performed. d. […] 20 μl/well assay buffer was added to the compound plate; f. The plate was mixed on plate shaker for 2 mins;
i. The normalized fluorescence reading (RFU) was calculated as shown below, wherein Fmax and Fmin stand for maximum and minimum of calcium signal during defined time window: RFU=Fmax−Fmin
ii. The percentage activation was calculated by using following equation: […]
iii. EC50 was calculated by fitting % activation against log of compound concentrations with Hill equation using XLfit.

SMILES | IC50 (human 5-HT2A receptor) | Predicted hepatic CL [1] | Remaining Percentage (%) 0 min ([1]; With NADPH) | Remaining Percentage (%) 60 min ([1]; With NADPH) | Remaining Percentage (%) 0 min ([1]; Without NADPH) | Remaining Percentage (%) 60 min ([1]; Without NADPH) | CLint scaled at 2 μM [1] | Predicted hepatic CL [2] | Remaining Percentage (%) 0 min ([2]; With NADPH) | Remaining Percentage (%) 60 min ([2]; With NADPH) | Remaining Percentage (%) 0 min ([2]; Without NADPH) | Remaining Percentage (%) 60 min ([2]; Without NADPH) | CLint scaled at 2 μM [2] | Predicted hepatic CL [3] | Remaining Percentage (%) 0 min ([3]; With NADPH) | Remaining Percentage (%) 60 min ([3]; With NADPH) | Remaining Percentage (%) 0 min ([3]; Without NADPH) | Remaining Percentage (%) 60 min ([3]; Without NADPH) | CLint scaled at 2 μM [3] | EC50 [4] | also measured
[2H]C([2H])N1CCC(c2c[nH]c3cccc(OCc4ccccc4)c23)C1 (single isomer, unassigned) [Compound I-36, 4-(benzyloxy)-3-(1-(methyl-d2)pyrrolidin-3-yl)-1H-indole] | > 10 µM | 74.95 mL/min/kg | 100.00% | 4.62% | 100.00% | 101.31% | 448 mL/min/kg | 33.57 mL/min/kg | 100.00% | 23.82% | 100.00% | 95.23% | 85.7 mL/min/kg | 12.51 mL/min/kg | 100.00% | 46.97% | 100.00% | 112.84% | 31.6 mL/min/kg | > 10 µM | half-life at 2 μM [1]: 13.5 min; microsomal CLint at 2 μM [1]: 102 µL/min/mg; half-life at 2 μM [2]: 29 min; microsomal CLint at 2 μM [2]: 47.8 µL/min/mg; half-life at 2 μM [3]: 55 min; microsomal CLint at 2 μM [3]: 25.2 µL/min/mg
[2H]C1([2H])CC(c2c[nH]c3cccc(OCc4ccccc4)c23)C([2H])([2H])N1C (single isomer, unassigned) [Compound I-37, 4-(benzyloxy)-3-(1-methylpyrrolidin-3-yl-2,2,5,5-d4)-1H-indole] | < 1 µM | 55.10 mL/min/kg | 100.00% | 37.75% | 100.00% | 93.26% | 142 mL/min/kg | 26.15 mL/min/kg | 100.00% | 43.53% | 100.00% | 101.84% | 49.7 mL/min/kg | 9.50 mL/min/kg | 100.00% | 65.70% | 100.00% | 99.55% | 17.6 mL/min/kg | > 10 µM | half-life at 2 μM [1]: 42.7 min; microsomal CLint at 2 μM [1]: 32.5 µL/min/mg; half-life at 2 μM [2]: 50 min; microsomal CLint at 2 μM [2]: 27.7 µL/min/mg; half-life at 2 μM [3]: 99 min; microsomal CLint at 2 μM [3]: 14 µL/min/mg
[2H]C([2H])N1CCC(c2c[nH]c3cccc(O)c23)C1 (centres unmarked) [Compound I-32, 3-(1-(methyl-d2)pyrrolidin-3-yl)-1H-indol-4-ol] | 1 to 10 µM | 18.85 mL/min/kg | 100.00% | 84.91% | 100.00% | 116.03% | 23.9 mL/min/kg | 0.96 mL/min/kg | 100.00% | 98.37% | 100.00% | 92.79% | 0.98 mL/min/kg | 3.99 mL/min/kg | 100.00% | 88.84% | 100.00% | 96.34% | 4.95 mL/min/kg | < 1 µM | half-life at 2 μM [1]: 254 min; microsomal CLint at 2 μM [1]: 5.45 µL/min/mg; half-life at 2 μM [2]: 2530 min; microsomal CLint at 2 μM [2]: 0.55 µL/min/mg; half-life at 2 μM [3]: 351 min; microsomal CLint at 2 μM [3]: 3.94 µL/min/mg
[2H]C([2H])N1C([2H])([2H])CC(c2c[nH]c3cccc(F)c23)C1([2H])[2H] (centres unmarked) [Compound I-41, 4-fluoro-3-(1-(methyl-d2)pyrrolidin-3-yl-2,2,5,5-d4)-1H-indole] | 1 to 10 µM |  |  |  |  |  |  |  |  |  |  |  |  |  |  |  |  |  |  | 1 to 10 µM | 
CN(C)CCc1c[nH]c2cccc(O)c12 [Psilocin, 4-hydroxy-N,N-dimethyltryptamine, reference compound] |  | 29.00 mL/min/kg | 100.00% | 74.57% | 100.00% | 91.98% | 42.8 mL/min/kg | 18.53 mL/min/kg | 100.00% | 62.68% | 100.00% | 96.98% | 27.9 mL/min/kg | 8.64 mL/min/kg | 100.00% | 70.16% | 100.00% | 87.13% | 14.8 mL/min/kg |  | 
